Experimental findings from ChEMBL document CHEMBL1131560, “Preparation of 9-deoxo-4"-deoxy-6,9-epoxyerythromycin lactams "motilactides": potent and orally active prokinetic agents” (Bioorg Med Chem Lett, 1998) are described below.

What is called half-life is the time needed for the level to fall by half in the phase considered. Read a high half-life as slow loss. The term bioavailability denotes the share of a dose that reaches the circulation, judged against a reference dose that is usually intravenous. A lower bioavailability goes with poor availability. What is called ED50 is the dose at which the effect has come halfway, by size or by number of responders. A low value points to an effect at a small dose.

The species entered for one data set is Oryctolagus cuniculus. Put plainly: In vitro smooth muscle contractility using isolated rabbit duodenum. Type of data set: functional, Muscle tissue.
The nature of data set [1]: Compound was evaluated for the half life period after oral administration in conscious dog. Conditions: in vivo. The class given is ADME, organism-based, Canis lupus familiaris.
Data set [2] in a line: Oral bioavailability in dog (conscious). The class given is ADME, organism-based, Canis lupus familiaris. Conditions: in vivo.
A further data set is filed under the species Canis familiaris. Put plainly: Effective dose was evaluated for gastrointestinal motor stimulating activity in dog. The class given is functional. The settings on record: Canis lupus familiaris.

Consider `CC[C@H]1NC(=O)[C@H](C)[C@@H](O[C@H]2C[C@@](C)(OC)C[C@H](C)O2)[C@H](C)[C@@H](O[C@@H]2O[C@H](C)C[C@H](N(C)CCO)[C@H]2O)[C@@]2(C)C[C@@H](C)[C@@H](O2)[C@H](C)[C@@H](O)[C@]1(C)O`, for which, in the data set listed under Oryctolagus cuniculus, the pED50 was found to be 6.6.
In data set [1], `CC[C@H]1OC(=O)[C@H](C)[C@@H](O[C@H]2C[C@@](C)(OC)C[C@H](C)O2)[C@H](C)[C@@H](O[C@@H]2O[C@H](C)C[C@H](N(C)C)[C@H]2O)[C@@]2(C)C[C@@H](C)[C@@H](O2)[C@H](C)[C@@H](O)[C@]1(C)O` gave a half-life of 4 h. In addition, in data set [2], the bioavailability is 5%. The pED50 in the data set listed under Oryctolagus cuniculus is reported as 7.8.
Compound `CC[C@H]1NC(=O)[C@H](C)[C@@H](O[C@H]2C[C@@](C)(OC)C[C@H](C)O2)[C@H](C)[C@@H](O[C@@H]2O[C@H](C)C[C@H](N(C)CC(C)O)[C@H]2O)[C@@]2(C)C[C@@H](C)[C@@H](O2)[C@H](C)[C@@H](O)[C@]1(C)O` (some centres undefined) gave a pED50 in the data set listed under Oryctolagus cuniculus of 6.6.
Turning to `CC[C@H]1NC(=O)[C@H](C)[C@@H](O[C@H]2C[C@@](C)(OC)C[C@H](C)O2)[C@H](C)[C@@H](O[C@@H]2O[C@H](C)C[C@H](N(C)CC(C)C)[C@H]2O)[C@@]2(C)C[C@@H](C)[C@@H](O2)[C@H](C)[C@@H](O)[C@]1(C)O`, the pED50 in the data set filed under Oryctolagus cuniculus was determined as 6.88.
In turn, `CC[C@H]1NC(=O)[C@H](C)[C@@H](O[C@H]2C[C@@](C)(OC)C[C@H](C)O2)[C@H](C)[C@@H](O[C@@H]2O[C@H](C)C[C@H](N(C)C)[C@H]2O)[C@@]2(C)C[C@@H](C)[C@@H](O2)[C@H](C)[C@@H](O)[C@]1(C)O` showed a half-life in data set [1] of 3.3 h. This compound gave a bioavailability in data set [2] of 40%. Moreover, the pED50 in the data set filed under Oryctolagus cuniculus came to 7.5.
Take `CC[C@H]1NC(=O)[C@H](C)[C@@H](O[C@H]2C[C@@](C)(OC)C[C@H](C)O2)[C@H](C)[C@@H](O[C@@H]2O[C@H](C)C[C@H](N(C)C(C)C)[C@H]2O)[C@@]2(C)C[C@@H](C)[C@@H](O2)[C@H](C)[C@@H](O)[C@]1(C)O`: the half-life in data set [1] is 3.8 h. The compound also gave a bioavailability in data set [2] of 60.5%. The median effective dose (ED50) in the data set filed under Canis familiaris is 0.036 mg/kg. This compound also showed a pED50 in the data set filed under Oryctolagus cuniculus of 8.
In turn, `CC[C@@H](O)[C@@](C)(O)C1OC(=O)[C@@H](C)[C@H](OC2C[C@@](C)(OC)C[C@H](C)O2)[C@H](C)[C@@H](O[C@@H]2O[C@H](C)C[C@H](N(C)C)[C@H]2O)[C@@H](C)[C@H]2O[C@H]([C@@H]2C)[C@@H]1C` (some centres undefined) gave a pED50 in the data set filed under Oryctolagus cuniculus of 4.35.
In the data set listed under Oryctolagus cuniculus, `CC[C@H]1OC(=O)[C@H](C)[C@@H](O[C@H]2C[C@@](C)(OC)[C@@H](O)[C@H](C)O2)[C@H](C)[C@@H](O[C@@H]2O[C@H](C)C[C@H](N(C)C)[C@H]2O)[C@](C)(O)C[C@@H](C)C(=O)[C@H](C)[C@@H](O)[C@]1(C)O` [ERYTHROMYCIN] returned a pED50 of 5.85.
In the case of `CC[C@H]1NC(=O)[C@H](C)[C@@H](O[C@H]2C[C@@](C)(OC)C[C@H](C)O2)[C@H](C)[C@@H](O[C@@H]2O[C@H](C)C[C@H](NC)[C@H]2O)[C@@]2(C)C[C@@H](C)[C@@H](O2)[C@H](C)[C@@H](O)[C@]1(C)O`, the pED50 in the data set filed under Oryctolagus cuniculus is listed as 7.25.
As for `CC[C@H]1OC(=O)[C@H](C)[C@@H](O[C@H]2C[C@@](C)(OC)C[C@H](C)O2)[C@H](C)[C@@H](O[C@@H]2O[C@H](C)C[C@H](N(C)CC)[C@H]2O)[C@@]2(C)CC(C)=C(O2)[C@H](C)[C@@H](O)[C@H]1C` [ALEMCINAL], the pED50 in the data set filed under Oryctolagus cuniculus was determined as 7.22.
`CC[C@H]1NC(=O)[C@H](C)[C@@H](O[C@H]2C[C@@](C)(OC)C[C@H](C)O2)[C@H](C)[C@@H](O[C@@H]2O[C@H](C)C[C@H](N(C)CCF)[C@H]2O)[C@@]2(C)C[C@@H](C)[C@@H](O2)[C@H](C)[C@@H](O)[C@]1(C)O` gave a pED50 in the data set filed under Oryctolagus cuniculus of 6.3.
Compound `CC[C@H]1NC(=O)[C@H](C)[C@@H](O[C@H]2C[C@@](C)(OC)C[C@H](C)O2)[C@H](C)[C@@H](O[C@@H]2O[C@H](C)C[C@H](N(C)CC)[C@H]2O)[C@@]2(C)C[C@@H](C)[C@@H](O2)[C@H](C)[C@@H](O)[C@]1(C)O` registered a pED50 in the data set listed under Oryctolagus cuniculus of 7.11.
